According to PMC12736255, “Reinvestigating Pyrrol-2-One-Based Compounds: From Antimicrobial Agents to Promising Antitumor Candidates” (Pharmaceuticals, 2025):

Key:
[1] = CellTiter-Glo 2.0 cytotoxicity, normal fibroblasts; assay type: cell-based, human; conditions: human, human gingival fibroblasts (HGF), read-out: cell viability
Procedure: (§1) Cytotoxicity of compounds was assessed using the CellTiter-Glo® 2.0 Assay (Promega, Madison, WI, USA) on human gingival fibroblasts (HGF), osteosarcoma (HOS and MG-63) and glioblastoma (LN-229 and U-118MG) cells, according to the manufacturer’s instructions. HGF, HOS, MG-63 and U-118MG cells were purchased from Cytion GmbH, Eppelheim, Germany, and LN-229 (CRL-2611) from the American Type Culture Collection (ATCC), Manassas, VA, USA. Cells were seeded (50,000 cells/mL—HGF, 100,000 cells/mL—tumor cells) into 96-well opaque white tissue culture-treated plates and allowed to adhere overnight in αMEM medium with 10% fetal bovine serum and 1% antibiotic-antimycotic (all from PAN—Biotech GmbH, Aidenbach, Germany). Cells were incubated with compounds (10 or 50 µM) for 24 h, then CellTiter-Glo® reagent was added and luminescence was recorded using a FLUOstar® Omega microplate reader (BMG LABTECH, Ortenberg, Germany). The experiments were carried out in triplicate, and the viability of treated cells was expressed as a percentage of the viability of control cells (untreated). Data were represented as means ± standard deviations. Stock solutions of compounds were prepared in DMSO, then diluted in complete cell culture media. […] Data were analyzed with independent two-tailed (Student’s) t-test, considering p < 0.05 statistically significant.

[2] = system: LN-229; experiment: CellTiter-Glo 2.0 cytotoxicity, glioblastoma; assay type: cell-based, human; conditions: LN-229, 24 h
Procedure: as §1

[3] = system: U-118MG; experiment: CellTiter-Glo 2.0 cytotoxicity, glioblastoma; assay type: cell-based, human; conditions: 50 µM, 24 h
Procedure: as §1

[4] = system: osteosarcoma (HOS and MG-63) cells; experiment: CellTiter-Glo 2.0 cytotoxicity, osteosarcoma; assay type: cell-based, human; conditions: osteosarcoma cell lines, 10 and 50 µM, 24 h
Procedure: as §1

[5] = system: HOP-62; experiment: NCI-60 5-dose screen; assay type: cell-based, human
[6] = system: SNB-75; experiment: NCI-60 5-dose screen; assay type: cell-based, human
[7] = system: RXF 393; experiment: NCI-60 5-dose screen; assay type: cell-based, human
[8] = system: CCRF-CEM; experiment: NCI-60 5-dose screen; assay type: cell-based; conditions: Homo sapiens
[9] = system: KM12; experiment: NCI-60 5-dose screen; assay type: cell-based, human
[10] = system: human gingival fibroblasts (HGF); experiment: CellTiter-Glo 2.0 cytotoxicity, normal fibroblasts; assay type: cell-based; conditions: 50 µM, 24 h
Procedure: as §1

[11] = system: MOLT-4; experiment: NCI-60 5-dose screen; assay type: cell-based, human
[12] = system: MDA-MB-468; experiment: NCI-60 5-dose screen; assay type: cell-based, human
[13] = system: SK-OV-3; experiment: NCI-60 5-dose screen; assay type: cell-based, human
[14] = system: M14; experiment: NCI-60 5-dose screen; assay type: cell-based, human
[15] = system: HT29; experiment: NCI-60 5-dose screen; assay type: cell-based, human
[16] = system: SW-620; experiment: NCI-60 5-dose screen; assay type: cell-based, human
[17] = system: A498; experiment: NCI-60 5-dose screen; assay type: cell-based, human
[18] = system: PC-3; experiment: NCI-60 5-dose screen; assay type: cell-based, human
[19] = system: SR; experiment: NCI-60 5-dose screen; assay type: cell-based, human
[20] = system: MALME-3M; experiment: NCI-60 5-dose screen; assay type: cell-based, human
[21] = system: HOP-92; experiment: NCI-60 5-dose screen; assay type: cell-based, human
[22] = system: TK-10; experiment: NCI-60 5-dose screen; assay type: cell-based, human
[23] = system: CAKI-1; experiment: NCI-60 5-dose screen; assay type: cell-based, human
[24] = system: ACHN; experiment: NCI-60 5-dose screen; assay type: cell-based, human
[25] = system: NCI-H226; experiment: NCI-60 5-dose screen; assay type: cell-based, human
[26] = system: HL-60(TB); experiment: NCI-60 5-dose screen; assay type: cell-based, human
[27] = system: SF-268; experiment: NCI-60 5-dose screen; assay type: cell-based, human
[28] = Homo sapiens, read-out: LC50 (the source's name)

In the case of `COc1cc(OC)c(C2C=C(Nc3ccc(I)cc3)C(=O)N2c2ccc(I)cc2)cc1OC` (stereo not drawn) [3k], the viability at 24 h, 50 µM [1] is reported as 64%, the “cytotoxicity (activity in words)” value [2] is reported as “ineffective” and the “cytotoxicity (activity in words)” value [3] is reported as “moderate activity”.
In the case of `O=C1C(Nc2ccc(I)cc2)=CC(c2ccc(O)c(O)c2)N1c1ccc(I)cc1` (stereo not drawn) [3h], the “cytotoxicity (activity in words)” value [4] is reported as “notable activity”, the TGI [5] is reported as over 100 µM and the GI50 ([5]; Homo sapiens) is reported as over 100 µM. It also gave a CC50 [5, 28] of over 100 µM, a TGI [6] of over 100 µM and a GI50 ([6]; Homo sapiens) of over 100 µM. It also gave a CC50 [6, 28] of over 100 µM, a TGI [7] of over 100 µM and a GI50 ([7]; Homo sapiens) of 6.25 µM. It also gave a CC50 [7, 28] of over 100 µM, a GI50 [8] of 3.09 µM and a CC50 ([8]; read-out: LC50 (the source's name)) of 3.61 µM. For the same molecule, the TGI [9] was over 100 µM, the GI50 ([9]; Homo sapiens) was 5.22 µM and the CC50 [9, 28] was over 100 µM. For the same molecule, the “cytotoxicity (activity in words)” value [10] was “acute cytotoxicity”, the TGI [11] was 4.17 µM and the GI50 ([11]; Homo sapiens) was 2.08 µM. It also gave a CC50 [11, 28] of 8.35 µM, a TGI [12] of over 100 µM and a GI50 ([12]; Homo sapiens) of 3.1 µM. The CC50 [12, 28] was over 100 µM, the TGI [13] was over 100 µM and the GI50 ([13]; Homo sapiens) was 7.6 µM. It also gave a CC50 [13, 28] of over 100 µM, a TGI [14] of over 100 µM and a GI50 ([14]; Homo sapiens) of 5.34 µM. The CC50 [14, 28] was over 100 µM, the TGI [15] was over 100 µM and the GI50 ([15]; Homo sapiens, HT-29) was 8.8 µM. The CC50 ([15]; Homo sapiens, HT-29, read-out: LC50 (the source's name)) was over 100 µM, the TGI [16] was over 100 µM and the GI50 ([16]; Homo sapiens) was over 100 µM. The CC50 [16, 28] was over 100 µM, the TGI [17] was over 100 µM and the GI50 ([17]; Homo sapiens) was over 100 µM. The CC50 [17, 28] was over 100 µM, the TGI [18] was over 100 µM and the GI50 ([18]; Homo sapiens) was 8.83 µM. For the same molecule, the CC50 [18, 28] was over 100 µM, the TGI [19] was 2.99 µM and the GI50 ([19]; Homo sapiens) was 1.55 µM. The CC50 [19, 28] was 5.75 µM, the “cytotoxicity (activity in words)” value [2] was “ineffective” and the “cytotoxicity (activity in words)” value [3] was “moderate activity”. The GI50 ([20]; Homo sapiens, Malme-3M) was 2.68 µM, the CC50 ([20]; Homo sapiens, Malme-3M, read-out: LC50 (the source's name)) was over 100 µM and the TGI ([20]; MALME-3M) was over 100 µM. For the same molecule, the TGI [21] was 8.97 µM, the GI50 ([21]; Homo sapiens) was 4.08 µM and the CC50 [21, 28] was over 100 µM. It also gave a TGI [22] of over 100 µM, a GI50 ([22]; Homo sapiens) of over 100 µM and a CC50 [22, 28] of over 100 µM. For the same molecule, the TGI [23] was over 100 µM, the GI50 ([23]; Homo sapiens) was over 100 µM and the CC50 [23, 28] was over 100 µM. It also gave a TGI [24] of over 100 µM, a GI50 ([24]; Homo sapiens) of over 100 µM and a CC50 [24, 28] of over 100 µM. The TGI [25] was over 100 µM, the GI50 ([25]; Homo sapiens) was over 100 µM and the CC50 [25, 28] was over 100 µM. For the same molecule, the TGI [26] was 4.28 µM, the GI50 ([26]; Homo sapiens) was 2.19 µM and the CC50 [26, 28] was 8.38 µM. It also gave a TGI [27] of over 100 µM, a GI50 ([27]; Homo sapiens) of 6.04 µM and a CC50 [27, 28] of over 100 µM.
